Results as given in ChEMBL document CHEMBL5321219, “Selective degradation of cellular BRD3 and BRD4-L promoted by PROTAC molecules in six cancer cell lines” (Eur J Med Chem, 2023).
The source made the active and inactive calls. The rule behind the calls is not given here.

Key:
[1] = biological target: T1, Bromodomain-containing protein 3 (Homo sapiens, UniProt Q15059); assay: Binding affinity to recombinant human BRD3 BD1 (24 to 144 residues) assessed as inhibition constant by fluorescence polarization binding assay
T1 sequence (Q15059 whole entry, the tested form may be a part): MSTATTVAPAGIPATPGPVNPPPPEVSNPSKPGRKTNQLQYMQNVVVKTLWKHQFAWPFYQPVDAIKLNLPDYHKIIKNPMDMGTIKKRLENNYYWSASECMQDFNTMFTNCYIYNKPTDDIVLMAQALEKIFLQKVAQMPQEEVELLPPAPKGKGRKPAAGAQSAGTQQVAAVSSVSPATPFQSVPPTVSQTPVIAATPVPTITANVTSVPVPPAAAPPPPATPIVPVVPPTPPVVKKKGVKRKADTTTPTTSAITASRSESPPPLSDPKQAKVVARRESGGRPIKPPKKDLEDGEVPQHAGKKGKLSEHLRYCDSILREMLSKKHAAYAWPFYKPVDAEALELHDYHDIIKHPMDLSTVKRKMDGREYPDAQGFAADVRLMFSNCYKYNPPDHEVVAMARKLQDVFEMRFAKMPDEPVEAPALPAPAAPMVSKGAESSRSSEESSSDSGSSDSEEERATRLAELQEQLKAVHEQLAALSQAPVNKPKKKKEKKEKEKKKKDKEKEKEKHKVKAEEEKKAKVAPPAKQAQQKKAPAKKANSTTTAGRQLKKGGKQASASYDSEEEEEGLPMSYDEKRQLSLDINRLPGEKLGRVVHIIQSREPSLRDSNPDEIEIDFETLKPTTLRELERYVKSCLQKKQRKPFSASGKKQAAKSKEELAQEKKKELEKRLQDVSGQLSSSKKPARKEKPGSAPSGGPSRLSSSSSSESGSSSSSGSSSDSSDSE

[2] = biological target: T1, Bromodomain-containing protein 3; assay: Binding affinity to recombinant human BRD3 BD2 (306 to 417 residues) assessed as inhibition constant by fluorescence polarization binding assay
[3] = tested on: MM1.S; assay: Antiproliferative activity against human MM1.S cells assessed as cell growth inhibition measured after 4 days by CellTitre-Glo assay; type: functional, cell-based; conditions: 96 h
[4] = tested on: MV4-11; assay: Antiproliferative activity against human MV4-11 cells assessed as cell growth inhibition measured after 3 days by CellTitre-Glo assay; type: functional, cell-based; conditions: MV4-11, 72 h
[5] = biological target: T2, Protein cereblon/Bromodomain-containing protein 4 (Homo sapiens) (UniProt O60885+Q96SW2); assay: PROTAC activity at CRBN/BRD4-L in human MM1.S cells assessed as induction of protein degradation measured after 24 hrs by Western blot analysis; type: cell-based
T2 sequence (Q96SW2 whole entry, looked up, other chains not shown): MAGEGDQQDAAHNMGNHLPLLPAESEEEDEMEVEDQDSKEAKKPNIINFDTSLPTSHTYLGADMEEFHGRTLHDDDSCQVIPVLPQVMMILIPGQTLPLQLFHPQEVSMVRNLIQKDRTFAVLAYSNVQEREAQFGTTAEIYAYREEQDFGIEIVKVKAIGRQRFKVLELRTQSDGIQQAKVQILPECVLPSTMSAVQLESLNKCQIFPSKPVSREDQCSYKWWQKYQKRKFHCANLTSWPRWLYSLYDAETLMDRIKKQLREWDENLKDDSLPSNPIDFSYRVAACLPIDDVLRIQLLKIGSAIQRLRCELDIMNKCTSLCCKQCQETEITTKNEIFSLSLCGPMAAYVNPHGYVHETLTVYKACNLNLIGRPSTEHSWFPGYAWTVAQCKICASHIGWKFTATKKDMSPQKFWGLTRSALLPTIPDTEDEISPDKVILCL

[6] = biological target: T3, Protein cereblon/Bromodomain-containing protein 3 (Homo sapiens) (UniProt Q15059+Q96SW2); assay: PROTAC activity at CRBN/BRD3 in human MM1.S cells assessed as induction of protein degradation measured after 24 hrs by Western blot analysis; type: cell-based
T3 sequence (Q15059 2-726 limits assumed): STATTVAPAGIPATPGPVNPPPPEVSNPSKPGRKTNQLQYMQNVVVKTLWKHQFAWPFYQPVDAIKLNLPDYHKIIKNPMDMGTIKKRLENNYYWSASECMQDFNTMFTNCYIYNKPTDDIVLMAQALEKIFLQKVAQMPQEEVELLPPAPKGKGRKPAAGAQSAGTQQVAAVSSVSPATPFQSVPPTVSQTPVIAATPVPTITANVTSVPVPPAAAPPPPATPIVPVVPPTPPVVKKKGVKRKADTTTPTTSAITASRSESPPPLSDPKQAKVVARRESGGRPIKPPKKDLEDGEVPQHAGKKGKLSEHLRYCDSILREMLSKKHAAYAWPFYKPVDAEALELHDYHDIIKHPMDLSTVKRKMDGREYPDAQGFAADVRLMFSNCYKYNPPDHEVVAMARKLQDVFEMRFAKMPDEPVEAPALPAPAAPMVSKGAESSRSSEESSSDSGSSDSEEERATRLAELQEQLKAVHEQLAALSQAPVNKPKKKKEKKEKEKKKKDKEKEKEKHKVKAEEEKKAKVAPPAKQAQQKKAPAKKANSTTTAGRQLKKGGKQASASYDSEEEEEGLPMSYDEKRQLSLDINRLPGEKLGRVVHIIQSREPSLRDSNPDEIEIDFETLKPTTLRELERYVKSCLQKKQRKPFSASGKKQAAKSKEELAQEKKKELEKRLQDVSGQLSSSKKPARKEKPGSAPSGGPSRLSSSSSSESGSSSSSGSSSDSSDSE
T3 sequence (Q96SW2 whole entry partner): as the sequence (Q96SW2 whole entry, looked up, other chains not shown) above

[7] = biological target: T4, Protein cereblon/Bromodomain-containing protein 2 (Homo sapiens) (UniProt P25440+Q96SW2); assay: PROTAC activity at CRBN/BRD2 in human MM1.S cells assessed as induction of protein degradation at 1 uM measured around 1 to 3 hrs by Western blot analysis; type: cell-based; conditions: time 1-3 hrs
T4 sequence (P25440 whole entry, looked up): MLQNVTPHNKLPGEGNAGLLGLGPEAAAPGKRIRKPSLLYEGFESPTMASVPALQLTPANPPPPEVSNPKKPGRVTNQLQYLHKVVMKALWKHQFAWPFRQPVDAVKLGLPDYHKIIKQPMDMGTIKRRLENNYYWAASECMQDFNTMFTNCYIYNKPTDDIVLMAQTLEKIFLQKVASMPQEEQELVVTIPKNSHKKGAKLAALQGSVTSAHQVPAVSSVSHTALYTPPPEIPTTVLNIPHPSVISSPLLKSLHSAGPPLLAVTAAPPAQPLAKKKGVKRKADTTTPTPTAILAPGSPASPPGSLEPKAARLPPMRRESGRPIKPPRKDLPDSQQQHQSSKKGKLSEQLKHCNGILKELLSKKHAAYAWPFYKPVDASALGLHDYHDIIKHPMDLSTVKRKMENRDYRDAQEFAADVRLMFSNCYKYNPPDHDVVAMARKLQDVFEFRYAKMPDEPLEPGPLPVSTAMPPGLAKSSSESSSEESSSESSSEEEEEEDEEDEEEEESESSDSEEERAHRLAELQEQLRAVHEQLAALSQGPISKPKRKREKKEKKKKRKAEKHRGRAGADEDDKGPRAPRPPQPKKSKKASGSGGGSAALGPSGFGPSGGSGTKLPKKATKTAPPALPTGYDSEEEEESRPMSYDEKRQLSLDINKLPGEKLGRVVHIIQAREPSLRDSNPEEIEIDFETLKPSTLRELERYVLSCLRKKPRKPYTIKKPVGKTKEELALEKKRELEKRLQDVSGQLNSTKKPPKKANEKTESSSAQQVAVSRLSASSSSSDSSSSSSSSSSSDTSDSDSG
T4 sequence (Q96SW2 whole entry, looked up): as the sequence (Q96SW2 whole entry, looked up, other chains not shown) above

[8] = biological target: T4, Protein cereblon/Bromodomain-containing protein 2 (Homo sapiens); assay: PROTAC activity at CRBN/BRD2 in human MCF7 cells assessed as induction of protein degradation at 1 uM measured around 1 to 3 hrs by Western blot analysis; type: cell-based; conditions: time 1-3 hrs
[9] = biological target: T4, Protein cereblon/Bromodomain-containing protein 2 (Homo sapiens); assay: PROTAC activity at CRBN/BRD2 in human HGC-27 cells assessed as induction of protein degradation at 1 uM measured around 1 to 3 hrs by Western blot analysis; type: cell-based; conditions: time 1-3 hrs
[10] = biological target: T3, Protein cereblon/Bromodomain-containing protein 3 (Homo sapiens); assay: PROTAC activity at CRBN/BRD3 in human MM1.S cells assessed as induction of protein degradation at 1 uM measured around 1 to 3 hrs by Western blot analysis; type: cell-based; conditions: time 1-3 hrs
[11] = biological target: T3, Protein cereblon/Bromodomain-containing protein 3 (Homo sapiens); assay: PROTAC activity at CRBN/BRD3 in human MCF7 cells assessed as induction of protein degradation at 1 uM measured around 1 to 3 hrs by Western blot analysis; type: cell-based; conditions: time 1-3 hrs
[12] = biological target: T3, Protein cereblon/Bromodomain-containing protein 3 (Homo sapiens); assay: PROTAC activity at CRBN/BRD3 in human HGC-27 cells assessed as induction of protein degradation at 1 uM measured around 1 to 3 hrs by Western blot analysis; type: cell-based; conditions: time 1-3 hrs
[13] = biological target: T2, Protein cereblon/Bromodomain-containing protein 4 (Homo sapiens); assay: PROTAC activity at CRBN/BRD4-L in human MM1.S cells assessed as induction of protein degradation at 1 uM measured around 1 to 3 hrs by Western blot analysis; type: cell-based; conditions: time 1-3 hrs
[14] = biological target: T2, Protein cereblon/Bromodomain-containing protein 4 (Homo sapiens); assay: PROTAC activity at CRBN/BRD4-L in human MCF7 cells assessed as induction of protein degradation at 1 uM measured around 1 to 3 hrs by Western blot analysis; type: cell-based; conditions: time 1-3 hrs
[15] = biological target: T2, Protein cereblon/Bromodomain-containing protein 4 (Homo sapiens); assay: PROTAC activity at CRBN/BRD4-L in human HGC-27 cells assessed as induction of protein degradation at 1 uM measured around 1 to 3 hrs by Western blot analysis; type: cell-based; conditions: time 1-3 hrs
[16] = biological target: T4, Protein cereblon/Bromodomain-containing protein 2 (Homo sapiens); assay: PROTAC activity at CRBN/BRD2 in human MV4-11 cells assessed as induction of protein degradation at 0.5 to 10 uM measured after 24 hrs by Western blot analysis; type: cell-based; conditions: dose 0.5-10 µM
[17] = biological target: T3, Protein cereblon/Bromodomain-containing protein 3 (Homo sapiens); assay: PROTAC activity at CRBN/BRD3 in human MV4-11 cells assessed as induction of protein degradation at 0.5 to 10 uM measured after 24 hrs by Western blot analysis; type: cell-based; conditions: dose 0.5-10 µM
[18] = biological target: T2, Protein cereblon/Bromodomain-containing protein 4 (Homo sapiens); assay: PROTAC activity at CRBN/BRD4-L in human MV4-11 cells assessed as induction of protein degradation at 0.5 to 10 uM measured after 24 hrs by Western blot analysis; type: cell-based; conditions: dose 0.5-10 µM
[19] = biological target: T2, Protein cereblon/Bromodomain-containing protein 4 (Homo sapiens); assay: PROTAC activity at CRBN/BRD4-S in human MV4-11 cells assessed as induction of protein degradation at 0.5 to 10 uM measured after 24 hrs by Western blot analysis; type: cell-based; conditions: dose 0.5-10 µM
[20] = biological target: T3, Protein cereblon/Bromodomain-containing protein 3 (Homo sapiens); assay: PROTAC activity at CRBN/BRD3 in human MCF7 cells assessed as induction of protein degradation at 1 to 50 uM measured after 24 hrs by Western blot analysis; type: cell-based; conditions: dose 1-50 µM
[21] = biological target: T3, Protein cereblon/Bromodomain-containing protein 3 (Homo sapiens); assay: PROTAC activity at CRBN/BRD3 in human HeLa cells assessed as induction of protein degradation at […] measured after 24 hrs by Western blot analysis; type: cell-based; conditions: dose lower 1.0 µM
[22] = biological target: T2, Protein cereblon/Bromodomain-containing protein 4 (Homo sapiens); assay: PROTAC activity at CRBN/BRD4-L in human MCF7 cells assessed as induction of protein degradation at 1 to 50 uM measured after 24 hrs by Western blot analysis; type: cell-based; conditions: dose 1-50 µM
[23] = biological target: T2, Protein cereblon/Bromodomain-containing protein 4 (Homo sapiens); assay: PROTAC activity at CRBN/BRD4-L in human HeLa cells assessed as induction of protein degradation at 1 to 50 uM measured after 24 hrs by Western blot analysis; type: cell-based; conditions: dose 1-50 µM
[24] = tested on: MCF7; assay: Antiproliferative activity against human MCF7 cells assessed as cell growth inhibition measured after 4 days by CCK-8 assay; type: functional, cell-based; conditions: MCF7, 96 h
[25] = tested on: HGC-27; assay: Antiproliferative activity against human HGC-27 cells assessed as cell growth inhibition measured after 4 days by CCK-8 assay; type: functional, cell-based; conditions: HGC-27, 96 h
[26] = tested on: A549; assay: Antiproliferative activity against human A549 cells assessed as cell growth inhibition measured after 4 days by CCK-8 assay; type: functional, cell-based; conditions: A549, 96 h
[27] = tested on: HeLa; assay: Antiproliferative activity against human HeLa cells assessed as cell growth inhibition measured after 4 days by CCK-8 assay; type: functional, cell-based; conditions: 96 h
[28] = tested on: HepG2; assay: Antiproliferative activity against human HepG2 cells assessed as cell growth inhibition measured after 4 days by CCK-8 assay; type: functional, cell-based; conditions: HepG2, 96 h
[29] = biological target: T3, Protein cereblon/Bromodomain-containing protein 3 (Homo sapiens); assay: PROTAC activity at CRBN/BRD3 in human MM1.S cells assessed as induction of protein degradation at 1 uM measured after 1 to 24 hrs by Western blot analysis; type: cell-based; conditions: time 1-24 hrs
[30] = biological target: T4, Protein cereblon/Bromodomain-containing protein 2 (Homo sapiens); assay: PROTAC activity at CRBN/BRD2 in human MM1.S cells assessed as induction of protein degradation at 1 uM measured after 1 to 24 hrs by Western blot analysis; type: cell-based; conditions: time 1-24 hrs
[31] = biological target: T2, Protein cereblon/Bromodomain-containing protein 4 (Homo sapiens); assay: PROTAC activity at CRBN/BRD4-L in human MM1.S cells assessed as induction of protein degradation at 1 uM measured after 1 to 24 hrs by Western blot analysis; type: cell-based; conditions: time 1-24 hrs
[32] = biological target: T2, Protein cereblon/Bromodomain-containing protein 4 (Homo sapiens); assay: PROTAC activity at CRBN/BRD4-S in human MM1.S cells assessed as induction of protein degradation at 1 uM measured after 1 to 24 hrs by Western blot analysis; type: cell-based; conditions: time 1-24 hrs
[33] = tested on: MM1.S; assay: Downregulation of c-Myc expression in human MM1.S cells at 1 uM measured after 1 to 24 hrs by Western blot analysis; type: functional, cell-based; conditions: time 1-24 hrs
[34] = biological target: T4, Protein cereblon/Bromodomain-containing protein 2 (Homo sapiens); assay: PROTAC activity at CRBN/BRD2 in human MM1.S cells assessed as induction of protein degradation at 2 to 10 nM measured after 24 hrs by Western blot analysis; type: cell-based; conditions: dose 2-10 nM
[35] = biological target: T3, Protein cereblon/Bromodomain-containing protein 3 (Homo sapiens); assay: PROTAC activity at CRBN/BRD3 in human MM1.S cells assessed as induction of protein degradation at 2 to 10 nM measured after 24 hrs by Western blot analysis; type: cell-based; conditions: dose 2-10 nM
[36] = biological target: T2, Protein cereblon/Bromodomain-containing protein 4 (Homo sapiens); assay: PROTAC activity at CRBN/BRD4-L in human MM1.S cells assessed as induction of protein degradation at 2 to 10 nM measured after 24 hrs by Western blot analysis; type: cell-based; conditions: dose 2-10 nM
[37] = biological target: T2, Protein cereblon/Bromodomain-containing protein 4 (Homo sapiens); assay: PROTAC activity at CRBN/BRD4-S in human MM1.S cells assessed as induction of protein degradation at 2 to 10 nM measured after 24 hrs by Western blot analysis; type: cell-based; conditions: dose 2-10 nM
[38] = tested on: Mus musculus; assay: In vivo PROTAC activity at CRBN/BRD4-L in SCID mouse xenografted with human MM1.S cells assessed as reduction in BRD4-L protein level in tumor at 100 mg/kg, po measured after 6 hrs by Western blot analysis; type: functional, organism-based
[39] = biological target: T2, Protein cereblon/Bromodomain-containing protein 4 (Homo sapiens); assay: PROTAC activity at CRBN/BRD4-L in human MM1.S cells assessed as induction of protein degradation at 2 nM measured after 24 hrs by Western blot analysis; type: cell-based
[40] = biological target: T3, Protein cereblon/Bromodomain-containing protein 3 (Homo sapiens); assay: PROTAC activity at CRBN/BRD3 in human MM1.S cells assessed as induction of protein degradation at 2 nM measured after 24 hrs by Western blot analysis; type: cell-based

SMILES: Cc1sc2c(c1C)C(c1ccc(Cl)cc1)=N[C@@H](CC(=O)NCCCCNC(=O)COc1cccc3c1C(=O)N(C1CCC(=O)NC1=O)C3=O)c1nnc(C)n1-2 (stereo not given in full)
- Ki [1]: 7.28 nM
- Ki [2]: 5.26 nM
- IC50 [3]: 2470 nM
- IC50 [4]: 11.8 nM
- Activity [5]: Dose-Dependent Effect
- Activity [6]: Dose-Dependent Effect
- Activity [7]: Active
- Activity [8]: Active
- Activity [9]: Active
- Activity [10]: Active
- Activity [11]: Active
- Activity [12]: Active
- Activity [13]: Active
- Activity [14]: Active
- Activity [15]: Active
- Activity [16]: Active
- Activity [17]: Active
- Activity [18]: Active
- Activity [19]: Active
- Activity [20]: Active
- Activity [21]: Active
- Activity [22]: Active
- Activity [23]: Active
- IC50 [24]: 5300 nM
- IC50 [25]: 880 nM
- IC50 [26]: 12300 nM
- IC50 [27]: 16100 nM
- IC50 [28]: 19800 nM
- Activity [29]: Active
- Activity [30]: Active
- Activity [31]: Active
- Activity [32]: inactive
- Activity [33]: Active

SMILES: Cc1nnc2n1-c1ccc(-c3ccc(CNCCCC#Cc4cccc5c4CN(C4CCC(=O)NC4=O)C5=O)cc3)cc1C(Nc1ccc(Cl)cc1)CC2 (stereo not given)
- Ki [1]: 48 nM
- Ki [2]: 5.04 nM
- IC50 [3]: 1310 nM
- IC50 [4]: 649 nM

SMILES: Cc1nnc2n1-c1ccc(-c3cnn(CC(=O)NCCCCC#Cc4cccc5c4CN(C4CCC(=O)NC4=O)C5=O)c3)cc1C(Nc1ccc(Cl)cc1)CC2 (stereo not given)
- Ki [1]: 29.3 nM
- Ki [2]: 6.62 nM
- IC50 [3]: 5330 nM
- IC50 [4]: 536 nM
- Activity [34]: inactive
- Activity [35]: inactive
- Activity [36]: inactive
- Activity [37]: inactive

SMILES: Cc1nnc2n1-c1ccc(-c3cnn(C)c3)cc1[C@H](Nc1ccc(Cl)cc1)CC2
- IC50 [3]: 2320 nM
- IC50 [4]: 270 nM
- Activity [38]: Active

SMILES: Cc1nnc2n1-c1ccc(-c3ccc(CNCCC#Cc4cccc5c4CN(C4CCC(=O)NC4=O)C5=O)cc3)cc1C(Nc1ccc(Cl)cc1)CC2 (stereo not given)
- Ki [1]: 22.2 nM
- Ki [2]: 5.72 nM
- IC50 [3]: 3370 nM
- IC50 [4]: 1560 nM

SMILES: Cc1nnc2n1-c1ccc(-c3ccc(CNCCCCCCc4cccc5c4CN(C4CCC(=O)NC4=O)C5=O)cc3)cc1C(Nc1ccc(Cl)cc1)CC2 (stereo not given)
- Ki [1]: 6.73 nM
- Ki [2]: 2.16 nM
- IC50 [3]: 31.4 nM
- IC50 [4]: 0.4 nM
- Activity [39]: Active
- Activity [40]: Active

SMILES: CNCc1ccc(-c2ccc3c(c2)C(Nc2ccc(Cl)cc2)CCc2nnc(C)n2-3)cc1 (stereo not given)
- Ki [1]: 267 nM
- Ki [2]: 47.2 nM
- IC50 [3]: 3790 nM
- IC50 [4]: 1220 nM

SMILES: Cc1nnc2n1-c1ccc(-c3ccc(CNCCCc4cccc5c4CN(C4CCC(=O)NC4=O)C5=O)cc3)cc1C(Nc1ccc(Cl)cc1)CC2 (stereo not given)
- Ki [1]: 18.5 nM
- Ki [2]: 2.46 nM
- IC50 [3]: 2830 nM
- IC50 [4]: 1010 nM
- Activity [34]: inactive
- Activity [35]: inactive
- Activity [36]: inactive
- Activity [37]: inactive
